In PubChem BioAssay (NCI):
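Each compound was tested at five concentrations against cells in 96-well plates for 48 hours. TGI marks complete inhibition of growth.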

Legend:
Assay in all cases: growth of human tumour cells (NCI), 48 h
[1] = test system: UO-31 renal
[2] = test system: K-562 leukemia
[3] = test system: HCC-2998 colon
[4] = test system: HOP-92 NSCLC
[5] = test system: SNB-75 CNS
[6] = test system: MOLT-4 leukemia
[7] = test system: CAKI-1 renal
[8] = test system: M19-MEL melanoma
[9] = test system: XF 498 CNS
[10] = test system: DMS 114 small cell lung
[11] = test system: SF-268 CNS
[12] = test system: RPMI-8226 leukemia
[13] = test system: SN12C renal
[14] = test system: NCI-H522 lung
[15] = test system: SK-MEL-2 melanoma
[16] = test system: KM12 colon
[17] = test system: UACC-62 melanoma
[18] = test system: NCI-H460 lung
[19] = test system: SR leukemia
[20] = test system: IGROV1 ovarian
[21] = test system: OVCAR-5 ovarian
[22] = test system: CCRF-CEM leukemia
[23] = test system: OVCAR-8 ovarian
[24] = test system: COLO 205 colon
[25] = test system: SK-OV-3 ovarian
[26] = test system: EKVX NSCLC
[27] = test system: NCI-H226 lung
[28] = test system: OVCAR-3 ovarian
[29] = test system: LOX IMVI melanoma
[30] = test system: HOP-62 NSCLC
[31] = test system: A549 NSCLC
[32] = test system: OVCAR-4 ovarian
[33] = test system: HT29 colon
[34] = test system: HCT-15 colon
[35] = test system: RXF-631 renal
[36] = test system: SNB-19 CNS
[37] = test system: 786-0 renal
[38] = test system: UACC-257 melanoma
[39] = test system: U251 CNS
[40] = test system: M14 melanoma
[41] = test system: HL-60(TB) leukemia
[42] = test system: SW-620 colon
[43] = test system: RXF 393 renal
[44] = test system: LXFL 529 NSCLC
[45] = test system: ACHN renal
[46] = test system: DLD-1 colon
[47] = test system: MALME-3M melanoma
[48] = test system: NCI-H23 lung
[49] = test system: KM20L2 colon
[50] = test system: SF-539 CNS
[51] = test system: HCT-116 colon
[52] = test system: SF-295 CNS
[53] = test system: DMS 273 small cell lung
[54] = test system: SK-MEL-5 melanoma
[55] = test system: TK-10 renal
[56] = test system: SK-MEL-28 melanoma
[57] = test system: HOP-18 NSCLC
[58] = test system: A498 renal
[59] = test system: SNB-78 CNS

Which results are given for `COC(=O)c1c(CC#N)cccc1CC#N`?
TGI [1]: > 100 µM; TGI [2]: > 100 µM; TGI [3]: > 100 µM; TGI [4]: > 100 µM; TGI [5]: > 100 µM; TGI [6]: > 100 µM; TGI [7]: > 100 µM; TGI [8]: > 100 µM; TGI [9]: > 100 µM; TGI [10]: > 100 µM; TGI [11]: > 100 µM; TGI [12]: > 100 µM; TGI [13]: > 100 µM; TGI [14]: > 100 µM; TGI [15]: > 100 µM; TGI [16]: > 100 µM; TGI [17]: > 100 µM; TGI [18]: > 100 µM; TGI [19]: > 100 µM; TGI [20]: > 100 µM; TGI [21]: > 100 µM; TGI [22]: > 100 µM; TGI [23]: > 100 µM; TGI [24]: > 100 µM; TGI [25]: > 100 µM; TGI [26]: > 100 µM; TGI [27]: > 100 µM; TGI [28]: > 100 µM; TGI [29]: > 100 µM; TGI [30]: > 100 µM; TGI [31]: > 100 µM; TGI [32]: > 100 µM; TGI [33]: > 100 µM; TGI [34]: > 100 µM; TGI [35]: > 100 µM; TGI [36]: > 100 µM; TGI [37]: > 100 µM; TGI [38]: > 100 µM; TGI [39]: > 100 µM; TGI [40]: > 100 µM; TGI [41]: > 100 µM; TGI [42]: > 100 µM; TGI [43]: > 100 µM; TGI [44]: > 100 µM; TGI [45]: > 100 µM; TGI [46]: > 100 µM; TGI [47]: > 100 µM; TGI [48]: > 100 µM; TGI [49]: > 100 µM; TGI [50]: > 100 µM; TGI [51]: > 100 µM; TGI [52]: > 100 µM; TGI [53]: > 100 µM

Which TGI [1] does the source give for `CC(c1cccc2ccccc12)/[N+]([O-])=C/c1ccccc1` (stereo unspecified) here?
Its TGI is over 100 µM.

What about the TGI [2] of the same compound?
Its TGI is over 100 µM.

And the TGI [3]?
Its TGI is over 100 µM.

And the TGI [4]?
Its TGI is over 100 µM.

What about the TGI [5] of the same compound?
The TGI was over 100 µM.

What about the TGI [6] of the same compound?
Its TGI is over 100 µM.

And the TGI [54]?
Its TGI is over 100 µM.

And the TGI [9]?
The TGI was over 100 µM.

And the TGI [10]?
The TGI was over 100 µM.

And the TGI [11]?
Its TGI is over 100 µM.

And the TGI [12]?
Its TGI is over 100 µM.

And the TGI [55]?
The TGI was over 100 µM.

What about the TGI [14] of the same compound?
The TGI was over 100 µM.

And the TGI [15]?
The TGI was over 100 µM.

And the TGI [16]?
Its TGI is over 100 µM.

And the TGI [56]?
The TGI was over 100 µM.

And the TGI [57]?
The TGI was over 100 µM.

What about the TGI [18] of the same compound?
The TGI was over 100 µM.

And the TGI [20]?
Its TGI is over 100 µM.

What about the TGI [21] of the same compound?
Its TGI is over 100 µM.

And the TGI [22]?
The TGI was over 100 µM.

And the TGI [23]?
Its TGI is over 100 µM.

And the TGI [24]?
Its TGI is over 100 µM.

What about the TGI [25] of the same compound?
Its TGI is over 100 µM.

And the TGI [26]?
Its TGI is over 100 µM.

What about the TGI [28] of the same compound?
The TGI was over 100 µM.

What about the TGI [29] of the same compound?
Its TGI is over 100 µM.

What about the TGI [30] of the same compound?
The TGI was over 100 µM.

And the TGI [31]?
Its TGI is over 100 µM.

And the TGI [33]?
Its TGI is over 100 µM.

And the TGI [35]?
Its TGI is over 100 µM.

And the TGI [36]?
Its TGI is over 100 µM.

What about the TGI [37] of the same compound?
Its TGI is over 100 µM.

And the TGI [38]?
The TGI was over 100 µM.

And the TGI [39]?
Its TGI is over 100 µM.

What about the TGI [58] of the same compound?
Its TGI is over 100 µM.

And the TGI [41]?
The TGI was over 100 µM.

And the TGI [42]?
The TGI was over 100 µM.

And the TGI [43]?
Its TGI is over 100 µM.

What about the TGI [44] of the same compound?
The TGI was over 100 µM.

And the TGI [45]?
Its TGI is over 100 µM.

What about the TGI [46] of the same compound?
Its TGI is over 100 µM.

And the TGI [47]?
The TGI was over 100 µM.

What about the TGI [48] of the same compound?
The TGI was over 100 µM.

What about the TGI [49] of the same compound?
Its TGI is over 100 µM.

What about the TGI [50] of the same compound?
The TGI was over 100 µM.

What about the TGI [51] of the same compound?
Its TGI is over 100 µM.

And the TGI [52]?
The TGI was over 100 µM.

And the TGI [53]?
Its TGI is over 100 µM.

Which TGI [1] does the source give for `Nc1c(-c2nc3ccccc3[nH]2)sc(=S)n1-c1ccccc1` here?
The TGI was over 100 µM.

What about the TGI [2] of the same compound?
The TGI was over 100 µM.

And the TGI [3]?
The TGI was over 100 µM.

And the TGI [59]?
Its TGI is over 100 µM.

What about the TGI [4] of the same compound?
Its TGI is over 100 µM.

What about the TGI [5] of the same compound?
Its TGI is over 100 µM.

And the TGI [6]?
Its TGI is 45.8 µM.

And the TGI [54]?
Its TGI is over 100 µM.

What about the TGI [7] of the same compound?
Its TGI is over 100 µM.

And the TGI [8]?
The TGI was over 100 µM.

And the TGI [10]?
The TGI was over 100 µM.

What about the TGI [11] of the same compound?
The TGI was over 100 µM.

And the TGI [12]?
The TGI was over 100 µM.

And the TGI [13]?
Its TGI is over 100 µM.

And the TGI [14]?
The TGI was over 100 µM.

And the TGI [15]?
The TGI was over 100 µM.

What about the TGI [16] of the same compound?
Its TGI is over 100 µM.

What about the TGI [17] of the same compound?
The TGI was 70 µM.

What about the TGI [56] of the same compound?
The TGI was over 100 µM.

What about the TGI [18] of the same compound?
The TGI was over 100 µM.

And the TGI [19]?
Its TGI is 86.5 µM.

And the TGI [20]?
The TGI was over 100 µM.

What about the TGI [21] of the same compound?
The TGI was over 100 µM.

What about the TGI [22] of the same compound?
The TGI was 81.2 µM.

And the TGI [23]?
Its TGI is over 100 µM.

And the TGI [24]?
The TGI was over 100 µM.

And the TGI [25]?
Its TGI is over 100 µM.

And the TGI [26]?
The TGI was over 100 µM.

What about the TGI [27] of the same compound?
Its TGI is over 100 µM.

And the TGI [28]?
The TGI was over 100 µM.

And the TGI [30]?
The TGI was over 100 µM.

What about the TGI [31] of the same compound?
Its TGI is over 100 µM.

What about the TGI [32] of the same compound?
The TGI was over 100 µM.

And the TGI [33]?
Its TGI is over 100 µM.

What about the TGI [34] of the same compound?
The TGI was over 100 µM.

What about the TGI [35] of the same compound?
The TGI was over 100 µM.

And the TGI [36]?
Its TGI is over 100 µM.

What about the TGI [37] of the same compound?
The TGI was over 100 µM.

What about the TGI [38] of the same compound?
The TGI was over 100 µM.

What about the TGI [39] of the same compound?
The TGI was over 100 µM.

What about the TGI [40] of the same compound?
Its TGI is over 100 µM.

What about the TGI [58] of the same compound?
The TGI was over 100 µM.

What about the TGI [41] of the same compound?
The TGI was over 100 µM.

And the TGI [42]?
Its TGI is over 100 µM.

And the TGI [43]?
Its TGI is over 100 µM.

What about the TGI [44] of the same compound?
Its TGI is over 100 µM.

And the TGI [45]?
The TGI was over 100 µM.

And the TGI [46]?
The TGI was over 100 µM.

What about the TGI [47] of the same compound?
The TGI was over 100 µM.

And the TGI [48]?
Its TGI is over 100 µM.

What about the TGI [50] of the same compound?
Its TGI is over 100 µM.

And the TGI [51]?
The TGI was over 100 µM.

And the TGI [52]?
The TGI was over 100 µM.

What about the TGI [53] of the same compound?
The TGI was over 100 µM.
